Data set [1] is described as follows: Apparent permeability across apical to basolateral side in human Caco-2 cells. In kind it is ADME, cell-based. For orientation: Passage across Caco-2 layers is used to estimate intestinal permeability.
Data set [2] in a line: Protein binding in rat plasma. In kind it is ADME, cell-free. The following applies: read-out: PPB (converted).
The subject of data set [3] is BJAB. The data set can be described thus: Antiproliferation activity against human BJAB cells assessed as reduction in cell viability incubated for 14 days by resazurin dye-based fluorescence analysis. Format: functional. The following applies: 336 h.
The nature of data set [4]: Half-life in Balb/c mouse at 1 mg/kg, iv administered as cassette dosing. Format: ADME, organism-based. The following applies: in vivo.
Data set [5] is described as follows: Intrinsic clearance in mouse liver microsome. Format: ADME. The following applies: liver microsomes, read-out: CLH. Background: Microsomes from liver hold many membrane-bound enzymes, among them those of drug oxidation.
Data set [6] can be described thus: Clearance in Sprague-Dawley rat at 1 mg/kg, iv administered as cassette dosing. Format: ADME, organism-based. The following applies: in vivo.
A short description of data set [7]: Solubility of the compound at pH 6.8. In kind it is physicochemical. The following applies: buffer.
Data set [8] can be described thus: Permeability of compound by PAMPA assay. In kind it is ADME. On the technique in general: PAMPA measures passive passage across an artificial lipid membrane.
The target in data set [9] is T1, Mucosa-associated lymphoid tissue lymphoma translocation protein 1 (Homo sapiens) (UniProt Q9UDY8).
T1 sequence (whole entry): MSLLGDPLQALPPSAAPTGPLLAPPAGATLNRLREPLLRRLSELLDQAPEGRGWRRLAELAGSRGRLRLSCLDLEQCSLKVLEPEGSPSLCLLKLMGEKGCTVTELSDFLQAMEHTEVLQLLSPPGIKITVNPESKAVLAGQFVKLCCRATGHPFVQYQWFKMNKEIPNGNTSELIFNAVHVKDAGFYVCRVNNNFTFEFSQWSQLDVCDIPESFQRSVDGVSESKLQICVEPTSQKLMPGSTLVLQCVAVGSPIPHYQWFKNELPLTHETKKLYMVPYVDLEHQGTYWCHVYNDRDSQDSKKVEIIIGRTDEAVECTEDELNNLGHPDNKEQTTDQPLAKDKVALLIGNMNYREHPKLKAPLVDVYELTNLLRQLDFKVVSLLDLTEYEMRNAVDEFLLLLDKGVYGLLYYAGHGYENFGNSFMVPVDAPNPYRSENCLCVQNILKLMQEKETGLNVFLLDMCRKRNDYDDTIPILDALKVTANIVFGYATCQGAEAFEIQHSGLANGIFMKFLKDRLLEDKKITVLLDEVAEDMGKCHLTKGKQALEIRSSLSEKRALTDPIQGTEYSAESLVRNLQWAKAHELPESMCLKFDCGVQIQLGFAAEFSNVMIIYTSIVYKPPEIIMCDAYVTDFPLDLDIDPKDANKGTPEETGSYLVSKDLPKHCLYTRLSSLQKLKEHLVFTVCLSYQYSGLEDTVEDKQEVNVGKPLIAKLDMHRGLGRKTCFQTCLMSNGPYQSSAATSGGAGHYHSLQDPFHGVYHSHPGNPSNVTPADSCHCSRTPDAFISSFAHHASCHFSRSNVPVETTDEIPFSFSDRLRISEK
The data set can be described thus: Allosteric inhibition of MALT1 protease activity in human OCI-LY3 cells assessed as accumulation of uncleaved substrate […] incubated for 24 hrs by Western blot analysis. In kind it is cell-based. The following applies: OCILY3, filed as negative allosteric modulator, dose 50-5000 nM.

Data set [10] in a line: Drug concentration in Balb/c mouse blood at 10 mg/kg, po BID administered at 12 hrs interval immunized post 1 hr first treatment measured after 12 hrs post second dose by LC-MS/MS analysis. The following applies: whole blood, read-out: Drug uptake. In kind it is ADME, organism-based.
The target of data set [11] is T2, Mucosa-associated lymphoid tissue lymphoma translocation protein 1 (Homo sapiens, UniProt Q9UDY8).
T2 sequence (Q9UDY8 whole entry): T1 sequence (whole entry)
Put plainly: Allosteric inhibition of MALT1-mediated T cell activation in human Jurkat cells assessed as decrease in PMA induced IL2 activation preincubated for 1 hr followed by addition of PMA measured after 5.5 hrs by luciferase reporter gene assay. Format: cell-based.

The test system of data set [12] is BJAB. Put plainly: Antiproliferative activity against human BJAB cells assessed as assessed as reduction in colony formation at 19.5 to 10000 nM incubated for 14 days by soft-agar assay. In kind it is functional, cell-based. The following applies: dose 19.5-10000 nM, time 14.0 day.
Data set [13] in a line: Intrinsic clearance in rat liver microsomes. Format: ADME, Microsome. The following applies: read-out: CLH.
In data set [14] the target is T1, Mucosa-associated lymphoid tissue lymphoma translocation protein 1 (Homo sapiens). Put plainly: Allosteric inhibition of MALT1 protease activity in human OCI-LY3 cells assessed as accumulation of uncleaved substrate CYLD incubated for 24 hrs by Western blot analysis. Format: cell-based. The following applies: OCILY3, filed as negative allosteric modulator, dose 50-5000 nM.

Data set [15] concerns the target T2, Mucosa-associated lymphoid tissue lymphoma translocation protein 1. The data set can be described thus: Allosteric inhibition of human wild-type […] MALT1 (329 to 824 residues) protease activity using Ac-Leu-Arg-Ser-Arg Rh110-dPro as substrate preincubated for 60 mins followed by substrate addition and measured after 60 mins by fluorescence assay.
Data set [16] concerns the target T1, Mucosa-associated lymphoid tissue lymphoma translocation protein 1 (Homo sapiens). The data set can be described thus: Allosteric inhibition of MALT1 protease activity in human OCI-LY3 cells assessed as accumulation of uncleaved substrate RELB incubated for 24 hrs by Western blot analysis. The following applies: OCILY3, filed as negative allosteric modulator, dose 50-5000 nM. Format: cell-based.

Data set [17] is described as follows: Thermodynamic solubility of the compound at pH 6.8. The following applies: buffer, read-out: Therm_solubility. In kind it is physicochemical.
A short description of data set [18]: Clearance in Balb/c mouse at 1 mg/kg, iv administered as cassette dosing. In kind it is ADME, organism-based. The following applies: in vivo.
Data set [19] relates to Mus musculus. Put plainly: Immunomodulatory activity in human TMD8 cells xenografted SCID mouse assessed as increase in levels of uncleaved BCL10 in tumor at 100 mg/kg, po. In kind it is functional, organism-based.
In data set [20] the test system is Mus musculus. Put plainly: Immunomodulatory activity in human TMD8 cells xenografted SCID mouse assessed as decrease in IL-10 production in tumor at 100 mg/kg, po. In kind it is functional, organism-based.
A short description of data set [21]: Oral bioavailability in Balb/c mouse at 3 mg/kg administered as cassette dosing. Format: ADME, organism-based. The following applies: in vivo.
Data set [22] can be described thus: Inhibition of mixed lymphocyte reaction in rat PBMC cells assessed as reduction in [3H]-thymidine incorporation measured after 5 days in presence of Il-7 by microbeta counting method. Format: cell-based.
A short description of data set [23]: Drug concentration in Balb/c mouse blood at 100 mg/kg, po BID administered at 12 hrs interval immunized post 1 hr first treatment measured after 12 hrs post second dose by LC-MS/MS analysis. The following applies: whole blood, read-out: Drug uptake. Format: ADME, organism-based.

pIC50: −log10 of the molar value. In brackets after ≈: the same amount, converted by molar mass. Activity calls are given as the source filed them.

The Papp A→B is the apparent permeability from the apical to the basolateral side of a cell layer. As a reminder, the pIC50 is the IC50 on a negative log10 scale, so that one unit is a factor of ten. What is called half-life is the time needed for the level to fall by half in the phase considered. Read a low half-life as rapid decline. A word on the clearance: it is the rate of elimination divided by the concentration. A higher clearance goes with a high capacity for elimination. The term solubility denotes the concentration that dissolves in the medium under given conditions. As a reminder, the bioavailability is dose-corrected exposure relative to a reference, in per cent. Low readings indicate little systemic uptake, high ones much systemic uptake.

On to `C[C@H]1COC[C@H](C)N1c1c(NC(=O)Nc2ccnc(C(F)(F)F)c2)cnc2cc(Cl)nn12`, for which the Papp A→B in data set [1] amounted to 1.47 ×10⁻⁶ cm/s. Also, in data set [2], the fraction unbound is 0.013. The pIC50 in the data set on BJAB [3] is 5.70; in data set [11] it was 6.74; in data set [15], 8.05; in [22] it was 6.22. The half-life in [4] was 1.9 h. Moreover, the microsomal CLint in data set [5] is 82 µL/min/mg; in data set [13], 42 µL/min/mg. The results for the clearance in data set [6] and in data set [18] were 41 mL/min/kg and 11 mL/min/kg, respectively. Moreover, the solubility in [7] was 266 µM (≈ 125 µg/mL). Besides, the “log(permeability)” value in data set [8] is reported as -4.2. Further, the inhibition result in data set [9], in data set [14] and in data set [16] was “Dose-dependent effect” in each case. Moreover, the values for the concentration at 12 h in [10] and in data set [23] were 40 nM and 690 nM, respectively. Also, the result in the data set with BJAB [12] was inactive. Moreover, in data set [17], the solubility thermodynamic came to 4 µg/mL (≈ 8.51 µM). Also, the outcome with Mus musculus [19] and in the data set with Mus musculus [20] was Active. For the same compound, in data set [21], the bioavailability stood at 99%.

For the origin of these results see ChEMBL document CHEMBL4673331 (J Med Chem, 2020).
